Values joined by “and” are separate entries in the source; they are usually repeats but may differ in a detail not shown here. Identical values can stand only once.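 48-hour exposure; five concentrations; linearly interpolated endpoints. GI50 = concentration required for 50% inhibition of growth. Definition used: TGI = concentration required for complete inhibition of growth.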
Experiments:
Assay in all cases: NCI anticancer screen, dose series, 48 h
SF-539 CNS = tested on: SF-539 CNS
OVCAR-8 ovarian = tested on: OVCAR-8 ovarian
SF-295 CNS = tested on: SF-295 CNS
BT-549 breast = tested on: BT-549 breast
SNB-75 CNS = tested on: SNB-75 CNS
UACC-257 melanoma = tested on: UACC-257 melanoma
TK-10 renal = tested on: TK-10 renal
HCT-15 colon = tested on: HCT-15 colon
UO-31 renal = tested on: UO-31 renal
HL-60(TB) leukemia = tested on: HL-60(TB) leukemia

Compound	GI50 (SF-539 CNS)	TGI (SF-539 CNS)	GI50 (OVCAR-8 ovarian)	TGI (OVCAR-8 ovarian)	GI50 (SF-295 CNS)	TGI (SF-295 CNS)	GI50 (BT-549 breast)	TGI (BT-549 breast)	GI50 (SNB-75 CNS)	TGI (SNB-75 CNS)	GI50 (UACC-257 melanoma)	TGI (UACC-257 melanoma)	GI50 (TK-10 renal)	TGI (TK-10 renal)	GI50 (HCT-15 colon)	TGI (HCT-15 colon)	GI50 (UO-31 renal)	TGI (UO-31 renal)	TGI (HL-60(TB) leukemia)	GI50 (HL-60(TB) leukemia)
Cc1cc(N2CCC(N3CCCC3)CC2)nc(/N=C(\N)Nc2ccc(Cl)c(Cl)c2)n1	1720 nM	3.54 µM	1910 nM	3.77 µM	1.84 µM	3.55 µM	2440 nM	6.37 µM	1580 nM	3.12 µM	1920 nM	3.54 µM	1.93 µM	3.72 µM	1640 nM	3.64 µM	1440 nM	2.85 µM	–	–
CCCC1C[C@H]2CCCCN2[C@H]2CCCN12 (some centres not stated)	–	> 100 µM	–	> 100 µM	–	> 100 µM	–	–	–	> 100 µM	–	> 100 µM	–	> 100 µM	–	> 75.5 µM	–	> 100 µM	> 64 µM	–
O=C(Nc1ccn(C2CC(O)C(COC(c3ccccc3)(c3ccccc3)c3ccccc3)O2)c(=O)n1)c1ccccc1 (configuration not stated)	–	8.49 µM	–	3.71 µM	–	3.55 µM	–	–	–	9.05 µM	–	28.3 µM	–	–	–	6.4 µM	–	18.7 µM	5.52 µM	–
O=C(N/C(=C\c1ccc([N+](=O)[O-])cc1)c1nc2ccccc2s1)c1ccccc1	–	55.1 µM	–	64.2 µM	–	–	–	–	–	63.5 µM	–	85.2 µM	–	61.9 µM	–	> 100 µM	–	56.3 µM	–	–
Nc1nc(SCc2ccccc2CCl)c2[nH]cnc2n1	21900 nM	54 µM	28200 nM	> 100 µM	18.7 µM	56 µM	13700 nM	29.6 µM	15300 nM	32.7 µM	14500 nM	32.9 µM	–	–	14500 nM	31.1 µM	10500 nM	71.9 µM	–	–
COc1ccc(/C=C/C(=N\NC(=O)c2ccccc2)c2sc(Nc3ccc([N+](=O)[O-])cc3)nc2C)cc1OC	–	69.8 µM	–	27 µM	–	26.5 µM	–	–	–	17.8 µM	–	28.1 µM	–	66.5 µM	–	28.5 µM	–	56.6 µM	–	–
COC(=O)CC1(O)C(=O)OCc2c1cc1n(c2=O)Cc2c-1nc1ccccc1c2OC (configuration not stated)	–	0.681 µM	–	> 28.5 µM	–	17.5 µM	–	–	–	3.56 µM	–	> 100 µM	–	> 100 µM	–	> 100 µM	–	30.5 µM	0.778 µM	–
C/C=C/C=C/c1cc2cc3c(c(O)c2c(=O)[nH]1)C1(CC3)C(O)=c2c(=O)c3c(=O)cc(OC)c(=O)c=3c(=O)c2=C1O (configuration not stated)	363 nM and 2330 nM	2.48 µM and 10.6 µM	145 nM and 902 nM	5.15 µM and 15.5 µM	–	2.91 µM and 8.02 µM	–	–	56.7 nM and 545 nM	0.511 µM and 1.72 µM	–	1.87 µM and 6.45 µM	–	4.13 µM and 16.4 µM	–	3.68 µM and 15.1 µM	170 nM and 1370 nM	16.3 µM and 9.83 µM	3.95 µM	669 nM
Cc1cc(Cl)ccc1N=C1NC(=O)C(CC(=O)Nc2cccc(Cl)c2)S1 (configuration not stated)	–	> 100 µM	–	> 100 µM	–	> 100 µM	–	–	–	> 100 µM	–	> 100 µM	–	> 100 µM	–	> 100 µM	–	> 100 µM	> 100 µM	–
Cc1nc2c(C)ccc([N+](=O)[O-])c2c(NCCCN(C)C)c1C	–	> 100 µM	–	> 71.6 µM	–	> 100 µM	–	–	–	> 100 µM	–	54.5 µM	–	> 55.7 µM	–	> 54.2 µM	–	> 100 µM	> 68.3 µM	–
CCn1cc(C(=O)O)c(=O)c2cc(F)c(N3CCN(S(=O)(=O)c4ccc(Cl)cc4Cl)CC3)cc21	1920 nM	4.07 µM	3300 nM	29 µM	–	–	2640 nM	7.89 µM	–	–	2650 nM	7.93 µM	4.02 µM	23 µM	2820 nM	> 100 µM	2200 nM	5.77 µM	5.15 µM	2220 nM
COc1cc(C(=O)c2cnc(-c3c[nH]c4cccc(C)c34)[nH]2)cc(OC)c1OC	2.89 nM	0.00874 µM	7.8 nM	43.2 µM	–	52.9 µM	20.4 nM	–	2.57 nM	36.8 µM	332 nM	–	–	–	6.59 nM	> 100 µM	9.65 nM	14.7 µM	–	–
CC1[C@@]2(CCC(C)(C)O2)O[C@@H]2C=C3C4CCC5Cc6nc7c(nc6C[C@@]5(C)C4C[C@H](O)[C@@]3(C)[C@]12O)CC1CCC2C3=C[C@H]4O[C@@]5(O[C@@](C)(CO)C[C@@H]5O)C(C)[C@@]4(O)[C@]3(C)[C@@H](O)CC2[C@]1(C)C7 (some centres not stated)	3.03 nM	0.0418 µM and 0.0415 µM	426 nM	1.2 µM	< 0.000365 µM	–	–	–	< 0.365 nM	–	26.5 nM	0.358 µM and 0.0847 µM	–	0.981 µM	9.07 nM	0.732 µM and 0.075 µM	–	0.114 µM	0.331 µM and 0.0465 µM	< 0.365 nM
COc1cc(C2CC(c3ccccc3)=NN2C=O)ccc1Oc1ccnc2cc(Cl)ccc12 (configuration not stated)	10300 nM	77.9 µM	4910 nM	> 100 µM	5.58 µM	86.2 µM	2240 nM	14.1 µM	3310 nM	21 µM	–	–	–	–	> 100000 nM	> 100 µM	13500 nM	> 100 µM	–	–
CC(=O)CCC1(c2ccccc2)OC(=O)C(C#N)=C1c1ccccc1 (configuration not stated)	–	> 100 µM	–	> 100 µM	–	> 100 µM	–	–	–	74.1 µM	–	> 100 µM	–	> 100 µM	–	> 100 µM	–	> 100 µM	–	–
CC(C)c1ccc(O)c(Cc2cc(C(C)C)cc(Cc3cc(C(C)C)ccc3O)c2O)c1	–	–	–	4.18 µM	–	3.3 µM	–	–	–	5.03 µM	–	3.41 µM	–	4.72 µM	–	3.24 µM	–	3.04 µM	4.36 µM	–
COC(=O)c1c(C)nc(C)c2c1C(=O)C(Br)=C(NCc1ccccc1)C2=O	2850 nM	8.01 µM	2510 nM	7.24 µM	3.04 µM	10.4 µM	4090 nM	15.4 µM	–	–	1620 nM	3.19 µM	10.1 µM	21.9 µM	2760 nM	8.26 µM	2410 nM	10.7 µM	–	–
COC(=O)C(=O)C(C(=O)C(=O)Nc1ccc([N+](=O)[O-])cc1)c1nc2ccccc2[nH]c1=O (configuration not stated)	–	–	–	> 100 µM	–	–	–	–	–	> 100 µM	–	> 100 µM	–	> 100 µM	–	> 100 µM	–	> 100 µM	> 100 µM	–
COc1cc2c(oc(=O)c3c4occc4cc(OC)c23)c2cccc(O)c12	–	> 100 µM	–	> 100 µM	–	> 100 µM	–	–	–	> 100 µM	–	> 100 µM	–	> 100 µM	–	> 100 µM	–	> 100 µM	> 100 µM	–

Reference: PubChem BioAssay (NCI)
